How the values were obtained:
[1] = tested on: MEK-ERK dependent luciferase expression (constitutively activated mutant MEK) in 293T cells; test: Cell-based MEK-ERK dependent luciferase reporter assay in 293T cells; conditions: Homo sapiens, HEK-293T, minimum concentration causing 50% inhibition in cell-based assays, 24 hours incubation
Procedure: Activities of compounds were determined using a cell-based assay system. 293T cells were engineered to express a luciferase reporter protein in response to activation of ERK. ERK was activated by the doxycycline inducible expression of a constitutively activated mutant MEK. The activated MEK mutant had serines 218 and 222 replaced with aspartic acids. Therefore, addition of doxycycline to the media of cells induced an increase in MEK-ERK dependent luciferase expression.
Cells were plated at 5000 cells per well of a 384 well plate in 20 ul of media containing 10 ng/ml doxycycline. Compounds were resuspended in DMSO at a concentration of 20 mM. These compound stocks were diluted at least 200 fold so the concentration of DMSO was never above 0.5%. Cells were incubated with compounds for 24 hours at which time 25 ul of Steady-Glo (Promega Corp.) was added. The plates were then assayed for luminescence. Percent inhibition was calculated by dividing the luminescence of compound treated cells by control cells.

GST-hMEK1 and mERK2 = target: T1, GST-hMEK1 and mERK2 (Homo sapiens, UniProt Q02750); format: biochemical; conditions: minimum concentration causing 50% inhibition in vitro assays; MEK kinase inhibition
T1 construct: purified GST-hMEK1 and mERK2 enzymes; fused on or other part: GST tag on hMEK1
T1 sequence (P63085 2-358): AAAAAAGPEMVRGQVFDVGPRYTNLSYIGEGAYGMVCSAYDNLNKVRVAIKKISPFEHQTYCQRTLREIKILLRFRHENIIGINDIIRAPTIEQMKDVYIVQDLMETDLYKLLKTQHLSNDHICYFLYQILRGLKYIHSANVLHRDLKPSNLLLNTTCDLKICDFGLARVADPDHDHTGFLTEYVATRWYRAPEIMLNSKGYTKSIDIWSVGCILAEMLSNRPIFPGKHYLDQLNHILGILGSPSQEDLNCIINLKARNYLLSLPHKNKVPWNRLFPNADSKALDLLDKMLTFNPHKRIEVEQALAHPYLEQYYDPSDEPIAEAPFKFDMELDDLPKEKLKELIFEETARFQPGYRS
T1 sequence (Q02750 whole entry, the tested form may be a part): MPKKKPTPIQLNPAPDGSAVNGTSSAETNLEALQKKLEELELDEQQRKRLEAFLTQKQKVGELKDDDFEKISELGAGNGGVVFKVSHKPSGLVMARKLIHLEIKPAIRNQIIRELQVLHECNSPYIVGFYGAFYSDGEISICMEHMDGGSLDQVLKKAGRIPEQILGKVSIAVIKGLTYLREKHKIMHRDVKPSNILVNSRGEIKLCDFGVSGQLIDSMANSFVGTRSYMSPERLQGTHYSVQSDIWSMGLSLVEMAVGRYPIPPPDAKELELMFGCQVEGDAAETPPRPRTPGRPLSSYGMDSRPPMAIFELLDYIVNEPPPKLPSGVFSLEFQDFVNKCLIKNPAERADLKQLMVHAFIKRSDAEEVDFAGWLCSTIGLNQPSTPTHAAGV
Procedure: In order to identify ideal inhibitory compounds in a high throughput-screening (HTS) format a 96-well radiolabel incorporation format assay utilizing purified GST-hMEK1 and mERK2 enzymes was developed. Compounds were diluted from dimethylsulfoxide (DMSO) stocks into 1× Simplified Assay Buffer (SAB) (20 mM HEPES and 10 mM MgCl2). A typical 25 microliter assay contained 0.002 nanomoles MEK^CA, 0.02 nanomoles ERK, 0.25 nanomoles MBP, 0.25 nanomoles unlabeled ATP, and 0.1 μCi [γ^33P] ATP. The screening assay essentially comprised four additions. Five μ1 of diluted compound were dispensed to 96-well assay plates. Ten μl of 2.5× enzyme cocktail (MEK^CA and ERK only) were then added to each well followed by a pre-incubation for 15 minutes at 37° C. […] Finally, 200 μl of 10% trichloroacetic acid (TCA) were added and incubated for 30 minutes to halt the reaction and precipitate radio labeled protein products. A filter plate was placed in the Filtermate Harvester, wetted twice with water, and rinsed twice with 1% pyrophosphate to block nonspecific binding to the glass filter. An assay plate was then scanned and aspirated or harvested onto the filter plate. The filter plate was then washed 12 times with water. Water was displaced by two washes with absolute ethanol and the plate was removed and allowed to air dry for 30 minutes at room temperature. A back seal was applied manually and 40 μl of scintillation cocktail were dispensed per well. A top seal was applied and the plate was counted in the TopCount for two seconds per well.

SMILES | IC50 (GST-hMEK1 and mERK2) [µM] | EC50 [1] [µM]
Cc1ccc(Nc2snc(O)c2C#N)cc1 [Compound 3] | 10 to 100 | < 10
N#Cc1c(Br)nsc1Nc1ccccc1 [Compound 2] | 10 to 100 | < 10
N#Cc1c(O)nsc1Nc1ccccc1Cl [Compound 11] | 10 to 100 | > 100
Cc1cccc(Nc2s[nH]c(=O)c2C#N)c1 [Compound 4] | 10 to 100 | 10 to 100
CC(C)c1cccc(C(C)C)c1Nc1snc(O)c1C#N [Compound 16] | 10 to 100 | 10 to 100
N#Cc1c(O)nsc1Nc1cccc2ccccc12 [Compound 13] | < 10 | < 10
N#Cc1c(O)nsc1Nc1ccccc1 [Compound 1] | < 10 | 10 to 100
CC(C)c1ccc(Nc2snc(O)c2C#N)cc1 [Compound 15] | < 10 | < 10
Cc1ccc(Nc2snc(N)c2C#N)cc1 [Compound 20] | < 10 | 
N#Cc1c(O)nsc1Nc1cccc(Cl)c1 [Compound 10] | 10 to 100 | > 100
COc1cccc(Nc2snc(O)c2C#N)c1 [Compound 8] |  | > 100
CC(=O)c1ccc(Nc2snc(O)c2C#N)cc1 [Compound 22] | < 10 | 
N#Cc1c(O)nsc1NCCc1ccc(O)cc1 [Compound 35] | < 10 | 
COc1ccccc1Nc1snc(O)c1C#N [Compound 7] |  | > 100
N#Cc1c(O)nsc1NC1CCc2ccccc21 (stereo not shown) [Compound 31] | < 10 | 
N#Cc1c(O)nsc1Nc1ccc(Cl)cc1 [Compound 9] | 10 to 100 | > 100
CN(C)c1ccc2ccccc2c1Nc1snc(O)c1C#N [Compound 17] | < 10 | < 10
N=C(N)c1c(O)nsc1Nc1ccc(Oc2ccccc2)cc1 [Compound 36] | < 10 | 
N#Cc1c(O)nsc1NCCCN1CCOCC1 [Compound 40] | < 10 | 
COc1ccc(Nc2snc(O)c2C#N)cc1 [Compound 6] |  | > 100
N#Cc1c(O)nsc1Nc1ccccc1C(F)(F)F [Compound 19] | 10 to 100 | 
Cc1ccccc1Nc1snc(O)c1C#N [Compound 5] | 10 to 100 | 10 to 100
CC(C)Nc1snc(O)c1C#N [Compound 39] | < 10 | 
N#Cc1c(O)nsc1N1CCCCC1 [Compound 33] | < 10 | 
N#Cc1c(O)nsc1Nc1ccc([N+](=O)[O-])cc1 [Compound 12] | < 10 | > 100

The next lines start with results.

IC50 (GST-hMEK1 and mERK2) [µM] | SMILES | EC50 [1] [µM]
< 10 | CN(C)c1ccc(Nc2snc(O)c2C#N)c2ccccc12 [Compound 18] | < 10
< 10 | N#Cc1c(O)nsc1NCC1CCCO1 (stereo not shown) [Compound 34] | 
< 10 | N#Cc1c(O)nsc1Nc1ccc(N)cc1 [Compound 21] | 
< 10 | N#Cc1c(OC2CCCCC2)nsc1Nc1ccccc1 [Compound 38] | 
< 10 | NC(=O)c1c(O)nsc1Nc1ccc(Oc2ccccc2)cc1 [Compound 37] | 
< 10 | COC(=O)c1ccccc1Nc1snc(O)c1C#N [Compound 27] | 
< 10 | CCCCNc1snc(O)c1C#N [Compound 32] | 
< 10 | COC(=O)c1ccc(Nc2snc(O)c2C#N)cc1 [Compound 25] | 
< 10 | N#Cc1c(O)nsc1Nc1cccnc1 [Compound 29] | 
< 10 | COc1cc(-c2ccccc2)ccc1Nc1snc(O)c1C#N [Compound 14] | > 100
< 10 | N#Cc1c(O)nsc1Nc1ccccc1F [Compound 26] | 
< 10 | N#Cc1c(Nc2ccc(Br)cc2)s[nH]c1=O [Compound 24] | 
